Assay results: ChEMBL document CHEMBL1131407, “Synthesis and metabotropic glutamate receptor activity of a 2-aminobicyclo[3.2.0]heptane-2,5-dicarboxylic acid, a molecule possessing an extended glutamate conformation” (Bioorg Med Chem Lett, 1998)

Key:
[1] = target: Metabotropic glutamate receptor 1 (Homo sapiens) (UniProt Q13255); assay: Compound (300 uM) was evaluated for percentage agonist activity against human mGluR1a expressed in chinese hamster ovary cells; assay type: functional, cell-based
[2] = target: Metabotropic glutamate receptor 6 (Homo sapiens) (UniProt O15303); assay: Compound (300 uM) was evaluated for percentage agonist activity against human mGluR6 expressed in chinese hamster ovary cells; assay type: functional, cell-based
Metabotropic glutamate receptor 6 (Homo sapiens), sequence (O15303 whole entry): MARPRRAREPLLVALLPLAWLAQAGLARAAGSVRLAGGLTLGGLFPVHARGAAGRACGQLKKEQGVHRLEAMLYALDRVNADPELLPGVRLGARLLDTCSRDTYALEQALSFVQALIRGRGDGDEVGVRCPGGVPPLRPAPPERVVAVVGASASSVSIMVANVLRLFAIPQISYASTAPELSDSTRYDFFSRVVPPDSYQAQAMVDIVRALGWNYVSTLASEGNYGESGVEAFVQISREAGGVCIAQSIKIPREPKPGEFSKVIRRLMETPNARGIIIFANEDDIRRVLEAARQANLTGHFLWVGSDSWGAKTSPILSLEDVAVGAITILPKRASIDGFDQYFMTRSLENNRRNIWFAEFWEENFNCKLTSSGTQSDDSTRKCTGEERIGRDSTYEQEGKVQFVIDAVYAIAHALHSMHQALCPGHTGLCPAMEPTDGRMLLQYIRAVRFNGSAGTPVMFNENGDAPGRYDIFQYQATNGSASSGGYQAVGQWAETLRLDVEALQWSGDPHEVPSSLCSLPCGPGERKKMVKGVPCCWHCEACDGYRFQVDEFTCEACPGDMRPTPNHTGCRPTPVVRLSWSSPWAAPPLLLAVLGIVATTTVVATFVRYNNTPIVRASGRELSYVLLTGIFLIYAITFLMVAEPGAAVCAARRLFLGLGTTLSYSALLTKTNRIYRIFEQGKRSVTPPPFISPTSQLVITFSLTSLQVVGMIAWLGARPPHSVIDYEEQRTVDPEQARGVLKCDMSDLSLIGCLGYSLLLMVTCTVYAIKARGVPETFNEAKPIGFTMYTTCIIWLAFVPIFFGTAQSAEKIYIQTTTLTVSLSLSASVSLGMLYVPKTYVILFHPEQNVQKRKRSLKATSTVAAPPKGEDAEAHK

Metabotropic glutamate receptor 1 (Homo sapiens), sequence (Q13255 19-1194 limits assumed): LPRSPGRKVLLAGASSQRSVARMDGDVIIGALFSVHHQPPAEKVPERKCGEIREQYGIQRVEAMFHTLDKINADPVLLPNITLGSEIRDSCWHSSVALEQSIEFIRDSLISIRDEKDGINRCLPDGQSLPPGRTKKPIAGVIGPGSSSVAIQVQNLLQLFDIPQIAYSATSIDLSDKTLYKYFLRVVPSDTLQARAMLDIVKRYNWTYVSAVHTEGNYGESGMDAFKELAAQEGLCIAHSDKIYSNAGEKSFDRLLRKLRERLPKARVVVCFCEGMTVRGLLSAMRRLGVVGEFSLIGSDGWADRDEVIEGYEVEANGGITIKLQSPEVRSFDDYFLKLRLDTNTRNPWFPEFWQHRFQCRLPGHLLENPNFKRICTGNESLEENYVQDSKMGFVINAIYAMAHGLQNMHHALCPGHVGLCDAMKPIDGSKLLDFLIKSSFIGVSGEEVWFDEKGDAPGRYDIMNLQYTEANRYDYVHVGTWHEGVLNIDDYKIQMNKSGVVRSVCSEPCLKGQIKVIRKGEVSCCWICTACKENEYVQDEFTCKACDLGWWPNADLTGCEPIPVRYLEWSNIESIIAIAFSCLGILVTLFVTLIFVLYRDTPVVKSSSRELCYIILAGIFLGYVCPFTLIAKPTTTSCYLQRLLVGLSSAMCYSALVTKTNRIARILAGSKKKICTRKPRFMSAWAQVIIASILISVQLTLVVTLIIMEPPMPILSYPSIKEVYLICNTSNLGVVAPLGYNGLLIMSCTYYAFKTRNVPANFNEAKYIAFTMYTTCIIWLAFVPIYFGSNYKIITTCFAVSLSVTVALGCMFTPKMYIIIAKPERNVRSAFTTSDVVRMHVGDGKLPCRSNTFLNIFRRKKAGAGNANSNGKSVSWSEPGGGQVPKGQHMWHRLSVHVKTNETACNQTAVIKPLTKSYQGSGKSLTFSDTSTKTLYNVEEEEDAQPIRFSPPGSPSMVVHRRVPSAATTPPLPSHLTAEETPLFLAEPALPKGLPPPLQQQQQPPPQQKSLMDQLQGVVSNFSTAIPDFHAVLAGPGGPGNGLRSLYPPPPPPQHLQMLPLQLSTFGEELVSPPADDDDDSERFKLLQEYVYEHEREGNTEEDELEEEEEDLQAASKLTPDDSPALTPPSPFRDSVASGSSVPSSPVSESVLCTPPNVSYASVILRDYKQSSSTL

Max agonist activity [1]: 16% | Max agonist activity [2]: 20%
Structure (SMILES): N[C@@]1(C(=O)O)CCC2C[C@H](C(=O)O)C21 (some centres not stated)
